Here are results for 23 compounds from patent publication US8324390B2, “Tetrazole-substituted anthranilamides as pesticides” (Bayer CropScience AG, priority 2008, dated 2012).

Read-outs that look alike come from different tables or passages of the source.

Series [1] in a line: log P determination by HPLC (EEC Directive 79/831 Annex V.A8). In kind it is physicochemical. On the procedure:
The measurements were carried out using an Agilent 1100 LC system with a 50*4.6 Zorbax Eclipse C18 1.8 μm column (oven temperature 55° C., flow rate 2.0 ml/min).
The following mobile phases were used:
Mobile phase A: acetonitrile+1000 μl of formic acid/l
Mobile phase B: Millipore water+900 μl of formic acid/l

Series [2] deals with green peach aphid (Myzus persicae). Nature of the series: Myzus test (MYZUPE spray treatment). The class given is in vivo. The conditions noted are these: Myzus persicae, foliar, read-out: effect in % (aphids killed). From the text:
Solvent: 78 parts by weight of acetone
(§1) Solvent: 78.0 parts by weight of acetone

The subject of series [3] is larvae of the mustard beetle (Phaedon cochleariae). Nature of the series: Phaedon test (PHAECO spray treatment). Particulars: Phaedon cochleariae, in Brassica rapa, foliar, read-out: effect in % (beetle larvae killed).
The subject of series [4] is caterpillars of the armyworm (Spodoptera frugiperda). The experiment in a line: Spodoptera frugiperda test (SPODFR spray treatment). The class given is in vivo. Particulars: Spodoptera frugiperda, foliar, read-out: effect in % (caterpillars killed).
Text: as §1

Where [5] appears, read: reversed-phase HPLC, Zorbax Eclipse C18 column, determined by HPLC according to EEC Directive 79/831 Annex V.A8, read-out: log P.
The mark [6] stands for this setting: application rate 100 g/ha, Chinese cabbage leaf discs.
The mark [7] stands for this setting: application rate 100 g/ha, maize leaf discs.

In series [1] (log P), `Cc1cc(C#N)cc(C(=O)NC(C)C2CC2)c1NC(=O)c1cc(Cn2nnnc2C(F)F)nn1-c1ncccc1Cl` (centres unmarked) [Example 467] came in with a chromatographic logP of 2.58. For the same compound, the pest or weed control at 100 g/ha in series [2] (in Brassica rapa), in series [3] and in series [4] (in Zea mays) was at least 80% each time.
In series [1] (log P), `CNC(=O)c1cc(Cl)cc(C)c1NC(=O)c1cc(Cn2nnnc2C(F)F)nn1-c1ncccc1Cl` [Example 470] returned a chromatographic logP of 2.26. The pest or weed control at 100 g/ha in series [2] (in Brassica rapa), in series [3] and in series [4] (in Zea mays) was at least 80% each time.
In series [1] (log P), `CC(C)(C)NC(=O)c1cc(Cl)cc(Cl)c1NC(=O)c1cc(Cn2nnnc2C(F)F)nn1-c1ncccc1Cl` [Example 471] returned a chromatographic logP of 3.05. In addition, the pest or weed control at 100 g/ha in series [2] (in Brassica rapa), in series [3] and in series [4] (in Zea mays) was at least 80% in each case.
The compound `CNC(=O)c1cc(C#N)cc(C)c1NC(=O)c1cc(Cn2nnnc2C(F)F)nn1-c1ncccc1Cl` [Example 472] came in with a chromatographic logP in series [1] (log P) of 1.97. Besides, the pest or weed control at 100 g/ha in series [2] (in Brassica rapa), in series [3] and in series [4] (in Zea mays) was at least 80% each time.
As for `Cc1cc(Cl)cc(C(=O)NC(C)(C)C)c1NC(=O)c1cc(Cn2nnnc2C(F)F)nn1-c1ncccc1Cl` [Example 475], the chromatographic logP in series [1] (log P) was determined as 3.09. In addition, the pest or weed control at 100 g/ha in series [2] (in Brassica rapa), in series [3] and in series [4] (in Zea mays) was at least 80% throughout.
For `CNC(=O)c1cc(Cl)cc(Cl)c1NC(=O)c1cc(Cn2nnnc2C(F)F)nn1-c1ncccc1Cl` [Example 476], the chromatographic logP in series [1] (log P) was found to be 2.22. Moreover, the pest or weed control at 100 g/ha in series [2] (in Brassica rapa), in series [3] and in series [4] (in Zea mays) was at least 80% each time.
For the compound `CNC(=O)c1cc(C#N)cc(C)c1NC(=O)c1cc(Cn2nnnc2C(F)(F)F)nn1-c1ncccc1Br` [Example 477], in series [1] (setting [5]), the chromatographic logP turned out to be 2.47. Also, the pest or weed control at 100 g/ha in series [2] (setting [6]), in series [3] and in series [4] (setting [7]) was at least 80% each time.
For the compound `CCNC(=O)c1cc(C#N)cc(C)c1NC(=O)c1cc(Cn2nnnc2C(F)(F)F)nn1-c1ncccc1Br` [Example 478], the chromatographic logP in series [1] (setting [5]) is 2.66. Further, the pest or weed control at 100 g/ha in series [2] (setting [6]), in series [3] and in series [4] (setting [7]) was at least 80% throughout.
In the case of `Cc1cc(C#N)cc(C(N)=O)c1NC(=O)c1cc(Cn2nnnc2C(F)(F)F)nn1-c1ncccc1Br` [Example 479], the chromatographic logP in series [1] (setting [5]) amounted to 2.28. For the same compound, the pest or weed control at 100 g/ha in series [2] (setting [6]), in series [3] and in series [4] (setting [7]) was at least 80% throughout.
Take `CNC(=O)c1cc(Cl)cc(C)c1NC(=O)c1cc(Cn2nnnc2C(F)(F)F)nn1-c1ncccc1Br` [Example 480]: the chromatographic logP in series [1] (setting [5]) was 2.79. Further, the pest or weed control at 100 g/ha in series [2] (setting [6]), in series [3] and in series [4] (setting [7]) was at least 80% each time.
Take `Cc1cc(Cl)cc(C(N)=O)c1NC(=O)c1cc(Cn2nnnc2C(F)(F)F)nn1-c1ncccc1Br` [Example 481]: the chromatographic logP in series [1] (setting [5]) worked out at 2.43. Also, the pest or weed control at 100 g/ha in series [2] (setting [6]), in series [3] and in series [4] (setting [7]) was at least 80% in each case.
For `Cc1cc(C#N)cc(C(=O)NC(C)(C)C)c1NC(=O)c1cc(Cn2nnnc2C(F)(F)F)nn1-c1ncccc1Br` [Example 483], in series [1] (setting [5]), the chromatographic logP was determined as 3.07. Besides, the pest or weed control at 100 g/ha in series [2] (setting [6]), in series [3] and in series [4] (setting [7]) was at least 80% each time.
Regarding `Cc1cc(Cl)cc(C(=O)NC(C)(C)C)c1NC(=O)c1cc(Cn2nnnc2C(F)(F)F)nn1-c1ncccc1Br` [Example 484], the chromatographic logP in series [1] (setting [5]) is 3.52. Further, the pest or weed control at 100 g/ha in series [2] (setting [6]), in series [3] and in series [4] (setting [7]) was at least 80% in each case.
Turning to `Cc1cc(Cl)cc(C(=O)NC(C)C)c1NC(=O)c1cc(Cn2nnnc2C(F)(F)F)nn1-c1ncccc1Br` [Example 485], the chromatographic logP in series [1] (setting [5]) was found to be 3.14. Further, the pest or weed control at 100 g/ha in series [2] (setting [6]), in series [3] and in series [4] (setting [7]) was at least 80% throughout.
In the case of `Cc1cc(Cl)cc(C(=O)NCC#N)c1NC(=O)c1cc(Cn2nnnc2C(F)(F)F)nn1-c1ncccc1Br` [Example 486], in series [1] (setting [5]), the chromatographic logP came to 2.64. Further, the pest or weed control at 100 g/ha in series [2] (setting [6]), in series [3] and in series [4] (setting [7]) was at least 80% in each case.
For `Cc1cc(Cl)cc(C(=O)NC2CC2)c1NC(=O)c1cc(Cn2nnnc2C(F)(F)F)nn1-c1ncccc1Br` [Example 487], the chromatographic logP in series [1] (setting [5]) amounted to 2.9. The pest or weed control at 100 g/ha in series [2] (setting [6]), in series [3] and in series [4] (setting [7]) was at least 80% each time.
Turning to `Cc1cc(C#N)cc(C(=O)NC(C)(C)C)c1NC(=O)c1cc(Cn2nnnc2C(F)(F)F)nn1-c1ccccc1C(F)(F)F` [Example 488], the chromatographic logP in series [1] (setting [5]) worked out at 3.58. For the same compound, the pest or weed control at 100 g/ha in series [2] (setting [6]), in series [3] and in series [4] (setting [7]) was at least 80% in each case.
With `Cc1cc(C#N)cc(C(=O)NC(C)C)c1NC(=O)c1cc(Cn2nnnc2C(F)(F)F)nn1-c1ccccc1Cl` [Example 491], the chromatographic logP in series [1] (setting [5]) stood at 3.25. Also, the pest or weed control at 100 g/ha in series [2] (setting [6]), in series [3] and in series [4] (setting [7]) was at least 80% throughout.
For `CCNC(=O)c1cc(C#N)cc(C)c1NC(=O)c1cc(Cn2nnnc2C(F)(F)F)nn1-c1ccccc1Cl` [Example 492], in series [1] (setting [5]), the chromatographic logP was 3.01. Besides, the pest or weed control at 100 g/ha in series [2] (setting [6]), in series [3] and in series [4] (setting [7]) was at least 80% in each case.
As for `CCNC(=O)c1cc(Cl)cc(C)c1NC(=O)c1cc(Cn2nnnc2C(F)(F)F)nn1-c1ncccc1Br` [Example 494], in series [1] (setting [5]), the chromatographic logP turned out to be 2.88. Moreover, the pest or weed control at 100 g/ha in series [2] (setting [6]), in series [3] and in series [4] (setting [7]) was at least 80% in each case.
Consider `Cc1cc(I)cc(C(=O)NC2CC2)c1NC(=O)c1cc(Cn2nnnc2C(F)(F)F)nn1-c1ncccc1Br` [Example 495], for which, in series [1] (setting [5]), the chromatographic logP is 3.11. In addition, the pest or weed control at 100 g/ha in series [2] (setting [6]), in series [3] and in series [4] (setting [7]) was at least 80% in each case.
As for `Cc1cc(I)cc(C(N)=O)c1NC(=O)c1cc(Cn2nnnc2C(F)(F)F)nn1-c1ncccc1Br` [Example 497], the chromatographic logP in series [1] (setting [5]) is 2.63. Besides, the pest or weed control at 100 g/ha in series [2] (setting [6]), in series [3] and in series [4] (setting [7]) was at least 80% each time.
As to `Cc1cc(Br)cc(C(N)=O)c1NC(=O)c1cc(Cn2nnnc2C(F)(F)F)nn1-c1ncccc1Br` [Example 498], the chromatographic logP in series [1] (setting [5]) was determined as 2.51. Also, the pest or weed control at 100 g/ha in series [2] (setting [6]), in series [3] and in series [4] (setting [7]) was at least 80% each time.
